ChEMBL document CHEMBL5365522, “Discovery of potential novel TRPC5 inhibitors by virtual screening and bioassay” (Bioorg Med Chem, 2023)
The source made the active and inactive calls. The calls are words filed in the database; no cut-off is given here.

Tests used:
[1] = target: T1, Short transient receptor potential channel 5 (Homo sapiens, UniProt Q9UL62); assay: Inhibition of human TRPC5 expressed in HEK293T cells assessed as intracellular calcium influx by measuring Ca2+ flow inhibition after 30 mins by Fluo-4 AM dye based fluorescence analysis; type: cell-based
T1 sequence (Q9UL62 whole entry): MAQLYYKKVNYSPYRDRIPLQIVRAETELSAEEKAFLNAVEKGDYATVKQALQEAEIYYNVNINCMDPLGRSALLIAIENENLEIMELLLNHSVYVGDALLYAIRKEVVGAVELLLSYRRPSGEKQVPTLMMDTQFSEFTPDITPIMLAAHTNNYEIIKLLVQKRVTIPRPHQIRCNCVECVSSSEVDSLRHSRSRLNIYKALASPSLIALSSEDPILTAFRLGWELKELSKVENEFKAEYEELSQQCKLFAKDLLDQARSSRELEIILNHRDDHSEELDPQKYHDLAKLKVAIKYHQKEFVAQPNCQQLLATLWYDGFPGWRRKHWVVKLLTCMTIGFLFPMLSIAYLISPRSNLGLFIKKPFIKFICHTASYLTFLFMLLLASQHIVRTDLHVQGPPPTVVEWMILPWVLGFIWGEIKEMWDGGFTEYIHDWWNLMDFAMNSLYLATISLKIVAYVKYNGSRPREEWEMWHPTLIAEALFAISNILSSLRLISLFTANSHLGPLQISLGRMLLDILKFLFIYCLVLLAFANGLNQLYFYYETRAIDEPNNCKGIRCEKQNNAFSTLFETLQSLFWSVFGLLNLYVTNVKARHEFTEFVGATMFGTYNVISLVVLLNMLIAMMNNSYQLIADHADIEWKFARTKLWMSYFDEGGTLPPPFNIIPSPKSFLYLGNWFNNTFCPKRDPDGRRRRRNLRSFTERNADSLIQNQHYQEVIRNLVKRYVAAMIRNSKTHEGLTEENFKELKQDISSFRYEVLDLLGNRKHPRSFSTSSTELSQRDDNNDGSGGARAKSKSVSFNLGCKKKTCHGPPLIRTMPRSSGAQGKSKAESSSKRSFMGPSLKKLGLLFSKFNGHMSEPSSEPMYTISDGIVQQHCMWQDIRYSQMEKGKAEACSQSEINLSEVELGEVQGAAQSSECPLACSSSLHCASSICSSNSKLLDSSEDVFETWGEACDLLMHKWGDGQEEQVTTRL

[2] = target: T2, Short transient receptor potential channel 5 (Homo sapiens) (UniProt Q9UL62); assay: Inhibition of human TRPC5 expressed in HEK293T cells assessed as intracellular calcium influx at 30 uM measured after 30 mins by Fluo-4 AM dye based fluorescence analysis; type: cell-based
T2 sequence (whole entry): T1 sequence (Q9UL62 whole entry)

HEK-293T [3] = assay: Cytotoxicity against human HEK293T cells expressing human TRPC5 assessed as reduction in cell viability at 100 uM incubated for 24 hrs by MTS assay; type: toxicity, cell-based
HEK-293T [4] = assay: Cytotoxicity against human HEK293T cells expressing human TRPC5 assessed as cell death incubated for 24 hrs by MTS assay; type: toxicity, cell-based

| IC50 [1] [µM] | inhibition [2] | SMILES | Activity (HEK-293T [3]) | Activity (HEK-293T [4]) |
| --- | --- | --- | --- | --- |
| 14.9 | – | c1ccc(Cn2c(NCc3ccco3)nc3ccccc32)cc1 | – | – |
| 10.2 | Active | O=C(Cc1cccc(F)c1)NCc1nnc2ccc(-c3ccc(F)cc3)nn12 | Non-Toxic | – |
| – | Active | CC(c1ccccc1)n1c(CCCO)nc2ccccc21 (stereo unspecified) | – | Toxic |
